{
  "source": "patent US20230392173A1",
  "about": "“ENGINEERED BIOSYNTHETIC PATHWAY FOR PRODUCTION OF 4-AMINOPHENYLETHYLAMINE BY FERMENTATION” (Zymergen Inc., priority 2020, published 2023)",
  "format_in_all_cases": "cell-based",
  "key": {"Bacillus licheniformis": {"test_system": "Bacillus licheniformis", "method": "(§1) FIG. 1: Toxicity impact of 4-APEA across a range of organisms tested in an Enzyscreen system. Various organisms are grown in media that is supplemented with the molecule of interest, and the growth of the organism is monitored over time. Analysis of the growth-time-course data allows determination of toxicity properties of the molecule of interest, such as the Minimal Inhibitory Concentration (MIC), the concentration at which growth is slowed to half (Ki), and the slope at which increased toxicity effects are observed (alpha). For FIG. 1, product toxicity was measured as a function of reduced substrate uptake with increasing product concentration.\n(§2) The term “Ki,” as used herein, refers to the concentration of a chemical (e.g., 4-APEA) at which the maximal growth rate of cells in culture is slowed by half. Cultures of the cells are grown in media supplemented with varying concentrations of a chemical, and the cell growth is monitored over time. Exponential growth curve data at each chemical concentration are used to determine a specific growth rate p using the following equation:\n(§3) where: X=cell concentration X0=cell concentration at time (t)=0 μ=specific growth rate. The maximal growth rate for each chemical concentration is determined (μobs) and the Ki is the chemical concentration at which the maximal growth rate has been slowed to half of the maximal growth rate in the absence of the chemical (μmax). Ki (denoted K1 below) can be determined from the equation:\n(§4) where: CI=concentration of inhibitor KI=inhibition constant—inhibitor concentration where growth rate is half of maximum α=inhibition parameter to fit data μmax=the maximum growth rate of a culture in the absence of a chemical μobs=the maximum growth rate of a culture at a given concentration of a chemical\n(§5) The term “alpha” (“α”), as used herein, refers to the slope at which toxicity effects are observed. Cultures of the cells are grown in media supplemented with increasing concentrations of a chemical, and the cell growth is monitored over time. Alpha can be determined from the equation: […]\n(§6) One obstacle to efficient production of 4-aminophenylethylamine (4-APEA) by fermentation is that 4-APEA is toxic to many host microbes used conventionally for fermentation. FIG. 1 depicts the concentration of 4-APEA at which an organism's growth is slowed by half (Ki) and the slope (alpha) at which toxicity effects are observed over increasing 4-APEA concentrations. A larger Ki and smaller alpha indicate higher tolerance and less susceptibility to inhibition, respectively. […] K. phaffi is expected to perform similarly to K. pastoris as a production host."}, "Komagataella phaffi": {"test_system": "Komagataella phaffi", "method": "as §1, §2, §3, §4, §5, §6"}, "Saccharomyces cerevisiae": {"test_system": "Saccharomyces cerevisiae", "method": "as §1, §2, §3, §4, §5, §6"}, "Yarrowia lipolytica": {"test_system": "Yarrowia lipolytica", "method": "as §1, §2, §3, §4, §5, §6"}},
  "data": [
    {"smiles": "NCCc1ccc(N)cc1", "note": "[Strain 4-APEA, 4-aminophenylethylamine]", "values": [
      {"measurement": "toxicity of 4-APEA (growth inhibition)", "setting": "Bacillus licheniformis", "value": "better results"},
      {"measurement": "toxicity of 4-APEA (growth inhibition)", "setting": "Komagataella phaffi", "value": "better results"},
      {"measurement": "toxicity of 4-APEA (growth inhibition)", "setting": "Saccharomyces cerevisiae", "value": "substantial toxicity"},
      {"measurement": "toxicity of 4-APEA (growth inhibition)", "setting": "Yarrowia lipolytica", "value": "better results"}
    ]}
  ]
}
